Among the data in patent publication US20040248950A1, “Apo ai expression accelerating agent” (priority 2004, published 2004) are EC (2-fold luciferase activity) and melting point values, retold here.

Data set [1] concerns promoter region of the gene encoding human apoAI. The data set is described as follows: Activity to enhance the production of human apoAI: apoAI promoter-luciferase reporter assay in HepG2 cells. Type of data set: cell-based. Conditions: minimum effective dose: concentration that intensified luciferase activity twice compared to control, 24 hours incubation, 0 to 10 μg/mL, read-out: MED. As to the method: Activity to Enhance the Production of Human apoAI
The promoter region of the gene encoding human apoAI was isolated and ligated upstream the structure gene of firefly luciferase to construct a reporter plasmid. The reporter plasmid and a marker plasmid conferring the neomycin resistance were co-infected to cell lines derived from human hepatoma, HepG2 cells, and the cell lines were incubated in a selection medium comprising DMEM medium containing 10% fetal calf serum supplemented with G418 (Final concentration: 0.7 mg/mL, Gibco) to give established strains that stably express the reporter molecule. The strains were seeded to a 96-well culture plates at a density of 50,000 cells per well, and incubated for 48 hours at 37° C. under 5% carbon dioxide. Then, a solution of the compounds according to the invention in DMSO was added to the wells at a final concentration of 0 to 10 μg/mL. After further incubation for 24 hours, the cells were added with a luciferase assay reagent (Piccagene LT 7.5 registered trade mark, Toyo Ink, KK), and the luciferase activity was determined using a luminometer (MicroBetaTM TRILUX, 1 sec/well, Wallac). The concentration of the compounds, which intensified the luciferase activity twice compared to that of control (DMSO without any compound of the invention added) was set as the minimal effective dose (MED).

For `c1ccc(-c2cn(-c3ccccc3)nn2)cc1` [Compound 123TA14-2], the EC (2-fold luciferase activity) in data set [1] was 0.59 µM.

For the molecule `COc1ccc(-c2nc(-c3ccccc3)no2)cc1` [Compound 124OD35-12, 5-(4-Methoxyphenyl)-3-phenyl-1,2,4-oxadiazole], the EC (2-fold luciferase activity) in data set [1] amounted to 0.07 µM.

Take `COc1ccc(-c2nc(-c3ccncc3)no2)cc1` [Compound 124OD35-13]: in data set [1], the EC (2-fold luciferase activity) was found to be 0.7 µM.

For `c1ccc(-c2nc(-c3ccc(-c4csnn4)cc3)no2)cc1` [Compound 124OD35-15], the EC (2-fold luciferase activity) in data set [1] came to 0.18 µM.

On to `c1ccc(Nc2nc(-c3ccccc3)ns2)cc1` [Compound 124TD35-6], for which the EC (2-fold luciferase activity) in data set [1] worked out at 0.93 µM.

A word on the melting point: it is the temperature of the solid-liquid transition. Regarding `CSc1ccc(-c2nnc(-c3ccccc3)o2)cc1` [Compound 134OD25-14], the melting point fell in the range of 120 to 122 °C. The EC (2-fold luciferase activity) in data set [1] stood at 0.56 µM.

In turn, `CN(C)c1ccc(-c2nnc(-c3ccccc3)o2)cc1` [Compound 134OD25-15, 2-(4-Dimethylaminophenyl)-5-phenyl-1,3,4-oxadiazole] gave a melting point of 135 to 140 °C. For the same molecule, in data set [1], the EC (2-fold luciferase activity) stood at 0.27 µM.

In turn, `C(=C\c1nnc(-c2ccccc2)o1)/c1ccco1` [Compound 134OD25-23, 2-[2-(2-Furyl)vinyl]-5-[1,3,4]-oxadiazole] came in with a melting point of 127 to 130 °C. Also, the EC (2-fold luciferase activity) in data set [1] stood at 0.82 µM.

In the case of `c1ccc(-c2nnc(-c3cc4ccccc4o3)o2)cc1` [Compound 134OD25-28], the melting point was in the range of 148 to 149 °C. In data set [1], the EC (2-fold luciferase activity) was 1.1 µM.

Molecule `COc1cccc(-c2nnc(-c3ccoc3)o2)c1` [Compound 134OD25-32, 2-(3-Furyl)-5-(3-methoxyphenyl)-[1,3,4]-oxadiazole] had a melting point of 70 to 71 °C. For the same molecule, the EC (2-fold luciferase activity) in data set [1] stood at 2.8 µM.

Turning to `CC(C)Oc1cccc(-c2nnc(-c3ccoc3)o2)c1` [Compound 134OD25-34], the EC (2-fold luciferase activity) in data set [1] is 1.5 µM.

Molecule `Cc1cccc(-c2nnc(-c3cccc(C)c3)o2)c1` [Compound 134OD25-40, 2,5-Bis (3-tolyl)-1,3,4-oxadiazole] returned a melting point of 82 to 83 °C. For the same molecule, the EC (2-fold luciferase activity) in data set [1] is 0.17 µM.

`c1ccc(-c2nnc(-c3ccccn3)o2)cc1` [Compound 134OD25-46, 2-(2-Pyridyl)-5-phenyl-1,3,4-oxadiazole]: in data set [1], the EC (2-fold luciferase activity) was found to be 0.37 µM.

With `COc1cccc(-c2nnc(N3CCOCC3)s2)c1` [Compound 134TD25-1], the EC (2-fold luciferase activity) in data set [1] came to 0.89 µM.

Consider `CC(C)Oc1cccc(-c2nnc(-c3ccoc3)s2)c1` [Compound 134TD25-4], for which, in data set [1], the EC (2-fold luciferase activity) amounted to 0.58 µM.

`Cc1ccc(-c2nnc(-c3ccco3)s2)cc1` [Compound 134TD25-5, 2-(2-Furyl)-5-p-tolyl-[1,3,4]-thiadiazole] returned a melting point of 110 to 113 °C. The EC (2-fold luciferase activity) in data set [1] came to 0.98 µM.

Turning to `c1ccc(-c2ccc(-c3ccccc3)o2)cc1` [Compound F25-10], in data set [1], the EC (2-fold luciferase activity) was found to be 2.5 µM.

Turning to `c1ccc(-c2cc(-c3ccccc3)on2)cc1` [IX35-1], the EC (2-fold luciferase activity) in data set [1] stood at 0.75 µM.

Take `COc1cccc(-c2cc(-c3ccoc3)on2)c1` [IX35-9, 5-(Furan-3-yl)-3-(3-methoxyphenyl)-isoxazole]: the melting point was 36 to 37 °C. Also, in data set [1], the EC (2-fold luciferase activity) was determined as 0.53 µM.

Take `COc1ccc(-c2nc(-c3ccccc3)co2)cc1` [OX24-5]: the EC (2-fold luciferase activity) in data set [1] is 0.32 µM.

Turning to `c1ccc(-c2coc(-c3ccccc3)n2)cc1` [OX24-8], in data set [1], the EC (2-fold luciferase activity) turned out to be 2.9 µM.

For the molecule `COc1ccc(-c2cc(-c3ccc(OC)cc3)n(C)n2)cc1` [PZ35-4, 3,5-Di(4-methoxyphenyl)-1-methylpyrazole], in data set [1], the EC (2-fold luciferase activity) came to 0.41 µM.

Turning to `c1ccc(-c2cc(-c3ccccn3)[nH]n2)nc1` [PZ35-5], the EC (2-fold luciferase activity) in data set [1] was determined as 1.5 µM.

For `Cc1ccc(-c2csc(-c3ccccc3)n2)cc1` [TZ24-3], in data set [1], the EC (2-fold luciferase activity) was determined as 0.45 µM.

Regarding `COc1ccc(-c2nc(-c3ccccc3)cs2)cc1` [TZ24-5, 2-(4-Methoxyphenyl)-4-phenylthiazole], in data set [1], the EC (2-fold luciferase activity) was 3.7 µM.

In the case of `COc1ccc(-c2nc(-c3ccco3)cs2)cc1` [TZ24-6, 4-(2-Furyl)-2-(4-methoxyphenyl)thiazole], in data set [1], the EC (2-fold luciferase activity) worked out at 1.2 µM.

Regarding `COc1ccc(-c2nc(-c3ccccn3)cs2)cc1` [TZ24-11], in data set [1], the EC (2-fold luciferase activity) was found to be 1.2 µM.

With `Cc1ccc(-n2nnc(-c3ccc(Cl)cc3)n2)cc1` [TZ-1], in data set [1], the EC (2-fold luciferase activity) was 0.33 µM.

Consider `Cc1ccc(-c2nnn(-c3ccc(Cl)cc3)n2)cc1` [TZ-2], for which the EC (2-fold luciferase activity) in data set [1] stood at 0.42 µM.

Consider `Cc1ccc(-n2nnc(-c3ccccc3)n2)cc1` [TZ-3], for which the EC (2-fold luciferase activity) in data set [1] came to 0.2 µM.

Take `Clc1ccc(-c2nnn(-c3ccc(Cl)cc3)n2)cc1` [TZ-4]: the EC (2-fold luciferase activity) in data set [1] was found to be 0.53 µM.

For the molecule `COc1ccc(-n2nnc(-c3ccccc3)n2)cc1` [TZ-7], the EC (2-fold luciferase activity) in data set [1] is 0.22 µM.
